Assay results reported in US7498406B2, “Substantially cell membrane impermeable compound and use thereof” (priority 1999, dated 2009).
Entries after “also recorded” stand apart in the source; their conditions may differ.

Legend:
[1] = tested on: BAE cells; format: cell-based, bovine; settings: up to 10 mM concentration (not shown)
[2] = tested on: Human bone marrow cells; experiment: 12 day human bone marrow culture assay, granulocyte/macrophage colonies; format: cell-based; settings: 12 days, 0 to 100 μM
Method: FIG. 20. Effect of GSAO on proliferation of bone marrow progenitor cells. Human bone marrow cells were incubated in semi-solid agar containing 20% BGS, 1 ng per mL IL-3 and 0 to 100 μM GSAA or GSAO for 12 days. Granulocyte/macrophage colonies of 40 or more cells were counted under an inverted microscope. The data points and errors represent the mean and SE of quadruplicate cultures.
GSAO reduced the number of granulocyte/macrophage colonies in a 12 day human bone marrow culture assay with an IC50 of ˜30 μM (FIG. 20). […] Human bone marrow cells (˜5×10^5 cells per mL) were added to semi-solid agar in DMEM containing 20% BCS, […] IL-3 and 0 to 100 μM GSAA or GSAO. The cultures were incubated for 12 days at 37° C. and 5% CO2 and clusters of 40 or more cells were counted under an inverted microscope according to Metcalf (1977).

[3] = Interaction of GSAO with synthetic, peptide and protein dithiols; format: binding; settings: read-out: dissociation constants, range over the dithiols
Method: (§1) FIG. 12. Interaction of GSAO with synthetic, peptide and protein dithiols. DMP (A) (15 μM), 6,8-thioctic acid (B) ([…]), dithiothreitol (C) (8.5 μM), TrpCysGlyProCysLys (D) (4.6 μM), TrpCysGlyHisCysLys (E) (5.5 μM) or thioredoxin (F) (4.1 μM corresponding to 20.6 μM thiols) was incubated with GSAO (0-56 μM) for 10 minutes. DTNB (950 μM) was then added and the reactions incubated for a further 10 minutes. The concentration of thiol in the reactions was determined from the absorbance of the TNB dianion at 412 nm. The solid lines represent the best non-linear least squares fit of the data to Equation 1 (A to E) or Equation 2 (F) and have been drawn using the parameter estimates in Table 1. The dotted line in part A represents a simulated titration assuming an infinite affinity of GSAO for the dithiol. GSAO bound to both synthetic, peptide and protein dithiols with dissociation constants in the range 130 nM to 1.4 μM.
Binding of GSAO to dithiols was measured from loss of thiols using the DTNB assay described above. The dissociation constant, Kd, for GSAO binding to dithiols was determined by incubating increasing concentrations of GSAO, I, with a fixed dithiol concentration, [S]T, and measuring the remaining dithiol using DTNB. Note that the concentration of dithiol equals half the TNB concentration. […]

[4] = target: T1, Thioredoxin (Homo sapiens, UniProt P10599); experiment: Inhibition of thioredoxin-mediated reduction of 70 kDa fibronectin fragment; format: biochemical; settings: 10 μM GSAO, 1 μM thioredoxin, 10 minutes
T1 construct: purchased American Diagnostica, Greenwich, Conn; host or cells: E. coli
Method: FIG. 13. Inhibition of thioredoxin by GSAO. Thioredoxin (1 μM) was incubated with GSAO (0, 1 or 10 μM) for 10 minutes at room temperature in 20 mM Hepes, 0.14 M NaCl, pH 7.4 buffer. The 70 kDa fibronectin fragment (10 μg per mL) was added and incubated for 5 minutes at room temperature. The reactions were labelled with MPB (100 μM) for 10 minutes at 37° C. The MPB was quenched with GSH (200 μM) for 10 minutes at 37° C. followed by iodoacetamide (400 μM) for 10 minutes at room temperature. The MPB-labelled 70 kDa fragment was resolved on 5-15% SDS-PAGE, transferred to PVDF membrane and the MPB detected by blotting with streptavidin peroxidase. The positions of Mr markers are shown at left.
It was observed that thioredoxin reduced one or more protein disulfide bonds in the 70 kDa N-terminal fragment of fibronectin.

[5] = Binding of GSAO to dithiol, loss of thiols in DTNB assay; settings: for Kd: errors are 1 SD, read-out: Dissociation Constant
Method: as §1
A stock solution of DMP (5 μL, 50 μmol) was dissolved in DMSO (995 μL), giving a concentration of 50 mM DMP, A second dilution of the 50 mM DMP stock solution (10 μL) in pH 7.0 buffer (0.1 M HEPES, 0.3 M NaCl, 1 mM EDTA) (990 μL) gave a working solution of 500 ? M DMP. The activity of the arsenical could then be determined by the titration of varying amounts of arsenical against the DMP working solution (10 μL) in a 96-well microtitre plate, with the total volume made up to 195 μL by addition of buffer. After a 10 minute incubation at room temperature, during which time the solutions were agitated on a plate shaker, 5 μL of a 37.9 mM stock solution of DTNB (15 mg) in DMSO (1 mL) was added, and the plate incubated with shaking for another 10 minutes. The absorbance at 412 nm due to the formation of the TNB dianion was measured using a Molecular Devices Thermomax Plus (Palo Alto, Calif.) microplate reader. The extinction coefficient for the TNB dianion at pH 7.0 is 14, 150 M^−1cm^−1 at 412 nm (Riddles et al., 1983).
Binding of GSAO to dithiols was measured from loss of thiols using the DTNB assay described above. The dissociation constant, Kd, for GSAO binding to dithiols was determined by incubating increasing concentrations of GSAO, I, with a fixed dithiol concentration, [S]T, and measuring the remaining dithiol using DTNB. Note that the concentration of dithiol equals half the TNB concentration. The concentration of dithiol.GSAO complex, SI, as a function of the total GSAO concentration, [I]T, is described by Equation 1 (Hogg and Jackson, 1990), [SI]=0.5.{([S]T+x.[I]T+Kd)−(([S]T+x.[I]T+Kd)^2−4.[S]T.x.[I]T)^0.5} (1)
where x is a factor that, when multiplied together with [I]T, will yield the active concentration of GSAO. […]

[6] = tested on: HIVIIIB; experiment: HIVIIIB entry into / infection of A3.01 cells, p24 antigen; format: cell-based, HIV
Method: FIG. 33. […] Cells were washed and incubated in complete medium at 5% CO2 and 37° C. for up to 10 days. […] B Concentration dependence of GSAO. […] Cells were washed, incubated in complete medium at 5% CO2 and 37° C. for 3 days and the conditioned medium collected and assayed for p24 antigen.
FIG. 34. Inhibition of HIVIIIB infection of A3.01 cells by GSAO.
A3.01 human T cells were exposed to GSAO for 30 minutes and then to HTLVIIIB virus for 2 hours after which the cells were washed and then cultured for up to 10 days. HTLVIIIB and A3.01 cells were obtained from the NIH AIDS Research and Reference Reagent Program, Rockville, Mass. Virus stocks were made and infectivity titer determined using A3.01 cells and the p24 antigen assay (Coulter, Miami, Fla.). A3.01 cells were cultured in RPMI medium containing 10% fetal calf serum. […] Cell numbers and cell viability were determined at the times specified by staining cells with trypan blue and counting using a Neubauer haemacytometer. Cell viability was measured as a percentage of live cells to total cells.

T1 sequence (P10599 whole entry, the tested form may be a part): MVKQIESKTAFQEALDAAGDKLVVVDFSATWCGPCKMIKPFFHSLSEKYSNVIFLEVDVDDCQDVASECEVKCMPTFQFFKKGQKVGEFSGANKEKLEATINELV

SMILES	effect on BAE viability [1]	IC50 for reduction of the number of granulocyte/macrophage colonies [2]	Kd [3]	inhibition of thioredoxin activity [4]	interaction with DMP in DTNB titration ([5]; DMP 15 μM, GSAO 0-50 μM, 10 minutes)	Kd ([5]; ring size 5)	Kd ([5]; ring size 6)	Kd ([5]; ring size 7)	HIVIIIB infection of A3.01 cells ([6]; 10 μM, also in the culture medium)	inhibition of HIVIIIB entry ([6]; 100 μM, 30 minutes before virus)	IC50 ([6]; Human immunodeficiency virus 1, read-out: half-maximal effect on HIVIIIB entry)
N[C@@H](CCC(=O)N[C@@H](CSCC(=O)Nc1ccc([As](=O)(O)O)cc1)C(=O)NCC(=O)O)C(=O)O [GSAA, 4-(N-(S-glutathionylacetyl)amino)phenylarsonic acid, reference compound]	no significant effect	no effect on colony numbers	–	–	–	–	–	–	–	–	–
NC(CCC(=O)NC(CSCC(=O)Nc1ccc([As]=O)cc1)C(=O)NCC(=O)O)C(=O)O (centres unmarked) [GSAO, 4-(N-(S-glutathionylacetyl)amino)-phenylarsenoxide]	–	–	0.13 to 1.4 µM	completely inhibited	bound to DMP and prevented interaction of the dithiol with DTNB	0.13 µM	0.2 ± 0.05 µM	0.42 µM	effectively blocked	Inhibition of HIVIIIB entry; also recorded: inhibited entry	~1 µM
